Experimental data from paper PMC8213057, “Targeting ALK2: An Open Science Approach to Developing Therapeutics for the Treatment of Diffuse Intrinsic Pontine Glioma” (Journal of Medicinal Chemistry, 2020).

Tests used:
AKT2 = AKT2 (Homo sapiens, UniProt P31751); experiment: biochemical; details: read-out: % enzyme activity, 1 μM; Run 1, Run 2
NEK2 = target: T1, NEK2 (Homo sapiens, UniProt P51955); details: 1 μM; Run 1, Run 2
T1 sequence (P51955 1-445): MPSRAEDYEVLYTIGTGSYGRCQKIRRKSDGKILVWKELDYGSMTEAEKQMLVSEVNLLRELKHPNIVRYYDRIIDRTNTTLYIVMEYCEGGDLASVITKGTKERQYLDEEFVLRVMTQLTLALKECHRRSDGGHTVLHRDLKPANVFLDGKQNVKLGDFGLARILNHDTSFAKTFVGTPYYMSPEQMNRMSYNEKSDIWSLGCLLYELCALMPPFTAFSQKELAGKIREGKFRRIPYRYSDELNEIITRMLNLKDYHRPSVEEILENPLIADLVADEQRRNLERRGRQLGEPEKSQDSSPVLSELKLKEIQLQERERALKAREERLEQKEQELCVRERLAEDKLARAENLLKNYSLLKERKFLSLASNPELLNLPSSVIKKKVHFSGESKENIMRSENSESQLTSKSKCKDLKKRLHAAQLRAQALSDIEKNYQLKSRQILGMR

PKCmu/PRKD1 = target: T2, PKCmu/PRKD1 (Homo sapiens, UniProt Q15139); experiment: biochemical; details: read-out: % enzyme activity, 1 μM; Run 1, Run 2
T2 sequence (Q15139 1-912): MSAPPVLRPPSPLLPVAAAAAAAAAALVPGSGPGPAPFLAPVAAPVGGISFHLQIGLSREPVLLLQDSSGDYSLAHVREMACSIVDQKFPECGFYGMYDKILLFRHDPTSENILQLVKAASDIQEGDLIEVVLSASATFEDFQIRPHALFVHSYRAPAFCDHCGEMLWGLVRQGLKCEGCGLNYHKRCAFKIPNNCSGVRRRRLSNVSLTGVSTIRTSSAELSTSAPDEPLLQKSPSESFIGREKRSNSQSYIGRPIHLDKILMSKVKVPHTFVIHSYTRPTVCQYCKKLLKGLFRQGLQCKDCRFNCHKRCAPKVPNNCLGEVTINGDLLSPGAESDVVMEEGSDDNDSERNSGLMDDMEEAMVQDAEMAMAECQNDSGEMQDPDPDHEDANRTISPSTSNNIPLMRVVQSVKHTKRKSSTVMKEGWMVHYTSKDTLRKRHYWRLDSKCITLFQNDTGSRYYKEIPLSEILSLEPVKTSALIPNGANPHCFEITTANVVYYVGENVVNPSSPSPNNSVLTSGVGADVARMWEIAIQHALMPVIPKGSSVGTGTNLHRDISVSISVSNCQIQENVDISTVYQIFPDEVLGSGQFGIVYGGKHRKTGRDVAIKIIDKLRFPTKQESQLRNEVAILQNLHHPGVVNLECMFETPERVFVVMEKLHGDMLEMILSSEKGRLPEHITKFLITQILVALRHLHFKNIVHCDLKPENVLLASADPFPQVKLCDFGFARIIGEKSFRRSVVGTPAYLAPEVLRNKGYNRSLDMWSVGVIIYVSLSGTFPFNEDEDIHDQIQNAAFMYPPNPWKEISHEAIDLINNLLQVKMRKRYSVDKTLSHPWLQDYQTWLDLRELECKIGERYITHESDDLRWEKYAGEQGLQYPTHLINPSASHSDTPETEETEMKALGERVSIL

PKN2/PRK2 = PKN2/PRK2 (Homo sapiens, UniProt Q16513); experiment: biochemical; details: read-out: % enzyme activity, 1 μM; Run 1, Run 2
PKN2/PRK2, sequence (Q16513 whole entry): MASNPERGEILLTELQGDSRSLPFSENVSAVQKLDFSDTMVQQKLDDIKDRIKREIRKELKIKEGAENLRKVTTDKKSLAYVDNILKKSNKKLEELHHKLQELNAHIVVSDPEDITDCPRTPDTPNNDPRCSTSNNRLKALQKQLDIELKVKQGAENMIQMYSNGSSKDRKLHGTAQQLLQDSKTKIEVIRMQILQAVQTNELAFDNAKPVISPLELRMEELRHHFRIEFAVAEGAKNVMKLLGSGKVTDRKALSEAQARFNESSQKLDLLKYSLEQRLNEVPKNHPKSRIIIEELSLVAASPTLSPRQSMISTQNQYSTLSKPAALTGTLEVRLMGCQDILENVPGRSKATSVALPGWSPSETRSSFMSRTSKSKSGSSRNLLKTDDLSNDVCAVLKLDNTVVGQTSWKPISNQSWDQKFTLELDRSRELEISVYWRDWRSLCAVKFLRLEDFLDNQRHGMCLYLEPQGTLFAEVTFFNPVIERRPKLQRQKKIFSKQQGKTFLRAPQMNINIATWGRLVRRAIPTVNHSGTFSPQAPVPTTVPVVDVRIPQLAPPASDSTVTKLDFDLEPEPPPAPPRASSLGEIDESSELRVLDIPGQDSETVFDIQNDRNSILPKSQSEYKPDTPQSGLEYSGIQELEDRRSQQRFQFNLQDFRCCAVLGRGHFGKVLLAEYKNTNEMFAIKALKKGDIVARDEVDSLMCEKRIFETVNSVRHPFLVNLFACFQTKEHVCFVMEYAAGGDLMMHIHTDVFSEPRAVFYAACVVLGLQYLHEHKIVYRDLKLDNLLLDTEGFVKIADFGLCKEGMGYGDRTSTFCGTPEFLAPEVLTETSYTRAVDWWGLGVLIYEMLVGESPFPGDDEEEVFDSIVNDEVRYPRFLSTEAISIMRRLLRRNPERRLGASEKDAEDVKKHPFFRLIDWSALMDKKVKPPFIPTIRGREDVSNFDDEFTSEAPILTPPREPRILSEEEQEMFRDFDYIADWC

TLK2 = TLK2 (Homo sapiens, UniProt Q86UE8); experiment: biochemical; details: read-out: % enzyme activity, 1 μM; Run 1, Run 2
TLK2, sequence (Q86UE8 whole entry): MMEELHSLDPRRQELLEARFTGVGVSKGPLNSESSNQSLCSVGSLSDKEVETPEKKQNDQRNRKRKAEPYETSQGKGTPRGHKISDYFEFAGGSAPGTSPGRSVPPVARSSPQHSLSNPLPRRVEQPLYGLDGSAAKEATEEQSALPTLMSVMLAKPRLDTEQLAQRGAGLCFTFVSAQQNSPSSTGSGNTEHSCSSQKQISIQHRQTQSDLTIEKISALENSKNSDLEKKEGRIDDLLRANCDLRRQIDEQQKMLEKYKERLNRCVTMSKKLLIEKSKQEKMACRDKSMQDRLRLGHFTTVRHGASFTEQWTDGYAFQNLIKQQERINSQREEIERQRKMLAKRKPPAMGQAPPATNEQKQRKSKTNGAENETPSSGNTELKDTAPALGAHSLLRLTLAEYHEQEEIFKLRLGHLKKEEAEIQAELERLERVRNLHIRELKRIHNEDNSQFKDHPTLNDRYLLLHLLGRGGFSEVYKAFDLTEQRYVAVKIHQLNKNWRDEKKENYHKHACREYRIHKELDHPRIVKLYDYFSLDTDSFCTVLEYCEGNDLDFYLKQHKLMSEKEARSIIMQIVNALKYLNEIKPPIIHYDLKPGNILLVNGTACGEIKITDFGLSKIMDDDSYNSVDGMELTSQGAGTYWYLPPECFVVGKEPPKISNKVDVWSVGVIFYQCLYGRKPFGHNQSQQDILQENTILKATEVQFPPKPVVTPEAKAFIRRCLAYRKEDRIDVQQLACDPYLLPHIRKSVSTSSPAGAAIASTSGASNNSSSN

PKCg = PKCg (Homo sapiens, UniProt P05129); experiment: biochemical; details: read-out: % enzyme activity, 1 μM; Run 1, Run 2
TAK1 = target: T3, TAK1 (Homo sapiens, UniProt O43318); details: 1 μM; Run 1, Run 2
T3 sequence (O43318 1-303 limits assumed): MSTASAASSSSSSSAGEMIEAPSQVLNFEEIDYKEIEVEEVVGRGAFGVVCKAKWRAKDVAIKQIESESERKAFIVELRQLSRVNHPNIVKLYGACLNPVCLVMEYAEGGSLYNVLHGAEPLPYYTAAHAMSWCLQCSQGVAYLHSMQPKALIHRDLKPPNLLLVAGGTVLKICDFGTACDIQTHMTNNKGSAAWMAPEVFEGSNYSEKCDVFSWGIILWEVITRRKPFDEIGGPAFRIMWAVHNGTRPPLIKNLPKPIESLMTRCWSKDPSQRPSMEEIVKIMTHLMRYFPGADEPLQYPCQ

PLK4/SAK = target: T4, PLK4/SAK (Homo sapiens, UniProt O00444); details: 1 μM; Run 1, Run 2
T4 sequence (O00444 1-970): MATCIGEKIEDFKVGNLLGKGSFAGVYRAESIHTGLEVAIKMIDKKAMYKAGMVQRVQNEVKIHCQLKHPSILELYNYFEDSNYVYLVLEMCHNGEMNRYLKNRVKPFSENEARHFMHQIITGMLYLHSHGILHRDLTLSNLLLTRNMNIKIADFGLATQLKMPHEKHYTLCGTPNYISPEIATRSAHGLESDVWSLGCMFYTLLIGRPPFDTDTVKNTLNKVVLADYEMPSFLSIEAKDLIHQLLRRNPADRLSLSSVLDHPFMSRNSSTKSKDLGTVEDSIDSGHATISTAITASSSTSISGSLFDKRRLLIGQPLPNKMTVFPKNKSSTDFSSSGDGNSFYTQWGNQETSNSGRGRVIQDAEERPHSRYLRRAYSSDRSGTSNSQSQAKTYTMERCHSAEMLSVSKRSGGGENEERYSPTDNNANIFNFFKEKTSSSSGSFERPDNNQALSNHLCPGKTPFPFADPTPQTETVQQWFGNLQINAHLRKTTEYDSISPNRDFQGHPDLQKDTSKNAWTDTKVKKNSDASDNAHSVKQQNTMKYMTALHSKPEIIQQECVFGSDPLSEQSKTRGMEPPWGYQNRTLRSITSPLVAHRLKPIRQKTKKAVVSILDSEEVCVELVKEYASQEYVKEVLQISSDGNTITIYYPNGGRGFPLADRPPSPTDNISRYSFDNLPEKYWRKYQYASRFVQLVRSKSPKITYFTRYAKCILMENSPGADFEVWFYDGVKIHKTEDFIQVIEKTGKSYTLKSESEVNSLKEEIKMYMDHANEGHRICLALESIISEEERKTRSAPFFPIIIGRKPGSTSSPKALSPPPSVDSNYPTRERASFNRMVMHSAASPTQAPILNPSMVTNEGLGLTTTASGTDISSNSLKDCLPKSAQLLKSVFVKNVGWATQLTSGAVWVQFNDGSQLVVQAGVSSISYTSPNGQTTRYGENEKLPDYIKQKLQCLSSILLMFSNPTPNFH

AKT2, sequence (P31751 whole entry): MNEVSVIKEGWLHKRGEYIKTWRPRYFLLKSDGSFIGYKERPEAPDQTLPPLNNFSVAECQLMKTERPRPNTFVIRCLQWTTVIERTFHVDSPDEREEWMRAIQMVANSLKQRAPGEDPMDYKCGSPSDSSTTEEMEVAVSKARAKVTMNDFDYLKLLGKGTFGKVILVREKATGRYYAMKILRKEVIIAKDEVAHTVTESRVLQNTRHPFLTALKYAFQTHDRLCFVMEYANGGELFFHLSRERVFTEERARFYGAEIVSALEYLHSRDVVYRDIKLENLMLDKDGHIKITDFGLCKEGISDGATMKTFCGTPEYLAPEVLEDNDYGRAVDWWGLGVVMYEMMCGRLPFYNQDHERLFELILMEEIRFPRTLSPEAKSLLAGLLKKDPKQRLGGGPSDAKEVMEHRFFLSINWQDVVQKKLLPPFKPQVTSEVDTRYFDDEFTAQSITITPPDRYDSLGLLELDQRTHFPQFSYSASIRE

| SMILES | remaining activity at 1 µM (AKT2) [%] | % enzyme activity (NEK2) [%] | remaining activity at 1 µM (PKCmu/PRKD1) [%] | remaining activity at 1 µM (PKN2/PRK2) [%] | remaining activity at 1 µM (TLK2) [%] | remaining activity at 1 µM (PKCg) [%] | % enzyme activity (TAK1) [%] | % enzyme activity (PLK4/SAK) [%] |
| --- | --- | --- | --- | --- | --- | --- | --- | --- |
| COc1cc(-c2cncc(-c3ccc(N4CCN(C)CC4)cc3)c2C)cc(F)c1C(N)=O [Compound 26a, 2-Fluoro-6-methoxy-4-(4-methyl-5-(4-(4-methylpiperazin-1-yl)phenyl)pyridin-3-yl)benzamide] | 91.9 | 90.39 | 90.1 | 94.5 | 96.6 | 97 | 97.44 | 93.32 |
| COc1cc(-c2cncc(-c3ccc(N4C[C@@H](C)N(C)[C@@H](C)C4)cc3)c2C)cc(F)c1C(N)=O [Compound 26c, 2-Fluoro-6-methoxy-4-(4-methyl-5-(4-((3R,5S)-3,4,5-trimethylpiperazin-1-yl)phenyl)pyridin-3-yl)benzamide] | 93 | 96.23 | 97.6 | 95.9 | 93.3 | 97.2 | 98.46 | 98.79 |
